Results published in ChEMBL document CHEMBL1148695, “Synthesis and biological activity of nociceptin/orphanin FQ analogues substituted in position 7 or 11 with Calpha,alpha-dialkylated amino acids” (Bioorg Med Chem, 2007).
Activity calls are given as the source filed them. The calls are words filed in the database; no cut-off is given here.

Key:
Assay type in all cases: functional, tissue-based
[1] = target: Nociceptin receptor (Cavia porcellus) (UniProt P47748); test: (§1) Agonist activity at NOP receptor in Albino guinea pig ileum assessed as effect on electrically stimulated contractions
[2] = target: Nociceptin receptor (Mus musculus) (UniProt P35377); test: (§2) Agonist activity at NOP receptor in Swiss mouse vas deferens by [35S]GTP-gamma-S binding assay
[3] = target: Nociceptin receptor (Mus musculus) (UniProt P35377); test: (§3) Agonist activity at NOP receptor in Swiss mouse vas deferens assessed as effect on electrically stimulated contractions
Nociceptin receptor [4] = target: T1, Nociceptin receptor (Mus musculus, UniProt P35377); test: as §3
Nociceptin receptor [5] = target: Nociceptin receptor (Cavia porcellus, UniProt P47748); test: as §1
Nociceptin receptor [6] = target: T1, Nociceptin receptor; test: as §2

T1 sequence (P35377 whole entry): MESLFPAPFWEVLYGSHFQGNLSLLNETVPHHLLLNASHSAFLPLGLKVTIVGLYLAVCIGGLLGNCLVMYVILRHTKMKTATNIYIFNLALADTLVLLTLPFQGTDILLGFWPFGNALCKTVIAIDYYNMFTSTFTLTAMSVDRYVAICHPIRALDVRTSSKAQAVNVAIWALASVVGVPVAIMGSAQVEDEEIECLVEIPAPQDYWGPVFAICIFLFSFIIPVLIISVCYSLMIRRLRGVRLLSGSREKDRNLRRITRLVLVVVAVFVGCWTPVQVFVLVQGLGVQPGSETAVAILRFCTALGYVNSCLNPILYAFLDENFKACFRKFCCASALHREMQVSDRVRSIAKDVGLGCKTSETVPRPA
Nociceptin receptor (Mus musculus), sequence (P35377 whole entry): as above
Nociceptin receptor (Cavia porcellus), sequence (P47748 whole entry): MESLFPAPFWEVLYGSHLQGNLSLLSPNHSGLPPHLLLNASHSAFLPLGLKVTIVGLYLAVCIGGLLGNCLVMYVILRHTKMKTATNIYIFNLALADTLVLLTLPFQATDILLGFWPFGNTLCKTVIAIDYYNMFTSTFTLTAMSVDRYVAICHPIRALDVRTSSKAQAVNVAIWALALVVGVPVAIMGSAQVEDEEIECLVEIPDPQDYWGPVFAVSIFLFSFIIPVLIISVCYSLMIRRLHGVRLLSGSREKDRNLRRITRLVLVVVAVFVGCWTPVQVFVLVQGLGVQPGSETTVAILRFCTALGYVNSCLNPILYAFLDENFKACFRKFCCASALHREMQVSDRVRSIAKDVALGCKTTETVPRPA
Nociceptin receptor (Cavia porcellus, UniProt P47748), sequence (P47748 whole entry): as above

SMILES | Emax [3] | EC50 (Nociceptin receptor [4]) | further results
C[C@H](NC(=O)[C@H](CO)NC(=O)[C@H](CCCCN)NC(=O)[C@H](CCCNC(=N)N)NC(=O)C(C)(C)NC(=O)CNC(=O)[C@@H](NC(=O)[C@H](Cc1ccccc1)NC(=O)CNC(=O)CNC(=O)[C@@H](N)Cc1ccccc1)[C@@H](C)O)C(=O)N[C@@H](CCCNC(=N)N)C(=O)N[C@@H](CCCCN)C(=O)N[C@@H](CCCNC(=N)N)C(=O)N[C@@H](CCCCN)C(=O)N[C@@H](CC(N)=O)C(=O)N[C@@H](CCC(N)=O)C(N)=O | – | – | Activity [1]: inactive; Activity [2]: inactive
CCCC(CCC)(NC(=O)[C@H](CO)NC(=O)[C@H](CCCCN)NC(=O)[C@H](CCCNC(=N)N)NC(=O)[C@H](C)NC(=O)CNC(=O)[C@@H](NC(=O)[C@H](Cc1ccccc1)NC(=O)CNC(=O)CNC(=O)[C@@H](N)Cc1ccccc1)[C@@H](C)O)C(=O)N[C@@H](CCCNC(=N)N)C(=O)N[C@@H](CCCCN)C(=O)N[C@@H](CC(C)C)C(=O)N[C@@H](C)C(=O)N[C@@H](CC(N)=O)C(=O)N[C@@H](CCC(N)=O)C(N)=O | 86% | 29.5 nM | –
CC(C)C[C@H](NC(=O)[C@H](CCCCN)NC(=O)[C@H](CCCNC(=N)N)NC(=O)C1(NC(=O)[C@H](CO)NC(=O)[C@H](CCCCN)NC(=O)[C@H](CCCNC(=N)N)NC(=O)[C@H](C)NC(=O)CNC(=O)[C@@H](NC(=O)[C@H](Cc2ccccc2)NC(=O)CNC(=O)CNC(=O)[C@@H](N)Cc2ccccc2)[C@@H](C)O)CCCCC1)C(=O)N[C@@H](C)C(=O)N[C@@H](CC(N)=O)C(=O)N[C@@H](CCC(N)=O)C(N)=O | 89% | 16.2 nM | –
CC(C)C[C@H](NC(=O)[C@H](CCCCN)NC(=O)[C@H](CCCNC(=N)N)NC(=O)C(C)(CC(C)C)NC(=O)[C@H](CO)NC(=O)[C@H](CCCCN)NC(=O)[C@H](CCCNC(=N)N)NC(=O)[C@H](C)NC(=O)CNC(=O)[C@@H](NC(=O)[C@H](Cc1ccccc1)NC(=O)CNC(=O)CNC(=O)[C@@H](N)Cc1ccccc1)[C@@H](C)O)C(=O)N[C@@H](C)C(=O)N[C@@H](CC(N)=O)C(=O)N[C@@H](CCC(N)=O)C(N)=O (stereo partly drawn) | 91% | 13.5 nM | –
CC(C)C[C@H](NC(=O)[C@H](CCCCN)NC(=O)[C@H](CCCNC(=N)N)NC(=O)[C@H](C)NC(=O)[C@H](CO)NC(=O)[C@H](CCCCN)NC(=O)[C@H](CCCNC(=N)N)NC(=O)C1(NC(=O)CNC(=O)[C@@H](NC(=O)[C@H](Cc2ccccc2)NC(=O)CNC(=O)CNC(=O)[C@@H](N)Cc2ccccc2)[C@@H](C)O)CCCC1)C(=O)N[C@@H](C)C(=O)N[C@@H](CC(N)=O)C(=O)N[C@@H](CCC(N)=O)C(N)=O | 98% | 25.1 nM | –
CC(C)C[C@H](NC(=O)[C@H](CCCCN)NC(=O)[C@H](CCCNC(=N)N)NC(=O)C1(NC(=O)[C@H](CO)NC(=O)[C@H](CCCCN)NC(=O)[C@H](CCCNC(=N)N)NC(=O)[C@H](C)NC(=O)CNC(=O)[C@@H](NC(=O)[C@H](Cc2ccccc2)NC(=O)CNC(=O)CNC(=O)[C@@H](N)Cc2ccccc2)[C@@H](C)O)CCCC1)C(=O)N[C@@H](C)C(=O)N[C@@H](CC(N)=O)C(=O)N[C@@H](CCC(N)=O)C(N)=O | 89% | 8.32 nM | –
CC(C)C[C@H](NC(=O)[C@H](CCCCN)NC(=O)[C@H](CCCN=C(N)N)NC(=O)[C@H](C)NC(=O)[C@H](CO)NC(=O)[C@H](CCCCN)NC(=O)[C@H](CCCN=C(N)N)NC(=O)[C@H](C)NC(=O)CNC(=O)[C@@H](NC(=O)[C@H](Cc1ccccc1)NC(=O)CNC(=O)CNC(=O)[C@@H](N)Cc1ccccc1)[C@@H](C)O)C(=O)N[C@@H](C)C(=O)N[C@@H](CC(N)=O)C(=O)N[C@@H](CCC(N)=O)C(=O)O [NOCICEPTIN] | – | – | EC50 (Nociceptin receptor [5]): 8.91 nM; EC50 (Nociceptin receptor [6]): 35.5 nM
CC(C)C[C@H](NC(=O)[C@H](CCCCN)NC(=O)[C@H](CCCNC(=N)N)NC(=O)[C@H](C)NC(=O)[C@H](CO)NC(=O)[C@H](CCCCN)NC(=O)[C@H](CCCNC(=N)N)NC(=O)C1(NC(=O)CNC(=O)[C@@H](NC(=O)[C@H](Cc2ccccc2)NC(=O)CNC(=O)CNC(=O)[C@@H](N)Cc2ccccc2)[C@@H](C)O)CCCCC1)C(=O)N[C@@H](C)C(=O)N[C@@H](CC(N)=O)C(=O)N[C@@H](CCC(N)=O)C(N)=O | 87% | 63.1 nM | –
CC(C)C[C@H](NC(=O)[C@H](CCCCN)NC(=O)[C@H](CCCNC(=N)N)NC(=O)[C@H](C)NC(=O)[C@H](CO)NC(=O)[C@H](CCCCN)NC(=O)[C@H](CCCNC(=N)N)NC(=O)[C@H](C)NC(=O)CNC(=O)[C@@H](NC(=O)[C@H](Cc1ccccc1)NC(=O)CNC(=O)CNC(=O)[C@@H](N)Cc1ccccc1)[C@@H](C)O)C(=O)N[C@@H](C)C(=O)N[C@@H](CC(N)=O)C(=O)N[C@@H](CCC(N)=O)C(=O)O | – | – | Emax [1]: 45%; Emax [2]: 87%
CC(C)C[C@H](NC(=O)[C@H](CCCCN)NC(=O)[C@H](CCCNC(=N)N)NC(=O)[C@H](C)NC(=O)[C@H](CO)NC(=O)[C@H](CCCCN)NC(=O)[C@H](CCCNC(=N)N)NC(=O)C(C)(C)NC(=O)CNC(=O)[C@@H](NC(=O)[C@H](Cc1ccccc1)NC(=O)CNC(=O)CNC(=O)[C@@H](N)Cc1ccccc1)[C@@H](C)O)C(=O)N[C@@H](C)C(=O)N[C@@H](CC(N)=O)C(=O)N[C@@H](CCC(N)=O)C(N)=O | 96% | 4.47 nM | –
CC(C)C[C@H](NC(=O)[C@H](CCCCN)NC(=O)[C@H](CCCNC(=N)N)NC(=O)[C@H](C)NC(=O)[C@H](CO)NC(=O)[C@H](CCCCN)NC(=O)[C@H](CCCNC(=N)N)NC(=O)C1(NC(=O)CNC(=O)[C@@H](NC(=O)[C@H](Cc2ccccc2)NC(=O)CNC(=O)CNC(=O)[C@@H](N)Cc2ccccc2)[C@@H](C)O)CC1)C(=O)N[C@@H](C)C(=O)N[C@@H](CC(N)=O)C(=O)N[C@@H](CCC(N)=O)C(N)=O | 7.08% | 83.2 nM | –
CCC(CC)(NC(=O)[C@H](CO)NC(=O)[C@H](CCCCN)NC(=O)[C@H](CCCNC(=N)N)NC(=O)[C@H](C)NC(=O)CNC(=O)[C@@H](NC(=O)[C@H](Cc1ccccc1)NC(=O)CNC(=O)CNC(=O)[C@@H](N)Cc1ccccc1)[C@@H](C)O)C(=O)N[C@@H](CCCNC(=N)N)C(=O)N[C@@H](CCCCN)C(=O)N[C@@H](CC(C)C)C(=O)N[C@@H](C)C(=O)N[C@@H](CC(N)=O)C(=O)N[C@@H](CCC(N)=O)C(N)=O | 87% | 17.8 nM | –
CC(C)C[C@H](NC(=O)[C@H](CCCCN)NC(=O)[C@H](CCCNC(=N)N)NC(=O)C(C)(C)NC(=O)[C@H](CO)NC(=O)[C@H](CCCCN)NC(=O)[C@H](CCCNC(=N)N)NC(=O)[C@H](C)NC(=O)CNC(=O)[C@@H](NC(=O)[C@H](Cc1ccccc1)NC(=O)CNC(=O)CNC(=O)[C@@H](N)Cc1ccccc1)[C@@H](C)O)C(=O)N[C@@H](C)C(=O)N[C@@H](CC(N)=O)C(=O)N[C@@H](CCC(N)=O)C(N)=O | 91% | 8.91 nM | –
CCC(CC)(NC(=O)CNC(=O)[C@@H](NC(=O)[C@H](Cc1ccccc1)NC(=O)CNC(=O)CNC(=O)[C@@H](N)Cc1ccccc1)[C@@H](C)O)C(=O)N[C@@H](CCCNC(=N)N)C(=O)N[C@@H](CCCCN)C(=O)N[C@@H](CO)C(=O)N[C@@H](C)C(=O)N[C@@H](CCCNC(=N)N)C(=O)N[C@@H](CCCCN)C(=O)N[C@@H](CC(C)C)C(=O)N[C@@H](C)C(=O)N[C@@H](CC(N)=O)C(=O)N[C@@H](CCC(N)=O)C(N)=O | 89% | 12.3 nM | –
